According to patent US11213538B2, “Agent for overcoming immunosuppression and use thereof” (GENERAL INCORPORATED ASSOCIATION PHARMA VALLEY PROJECT …, priority 2016, dated 2022):

Legend:
FOXP3 = target: T1, FOXP3 (Homo sapiens, UniProt Q9BZS1); test: FOXP3 function inhibitory activity, NF-κB luciferase reporter in HEK293/NF-κB-RE/FOXP3 cells with TNF-alpha; format: cell-based; conditions: for Chemiluminescence intensity ratio (HEK293/NF-κB-RE/FOXP3 cells / HEK293/NF-κB-RE cells): DMSO control = 1.0
T1 construct: expressed in transfected cells
T1 sequence (Q9BZS1 1-431): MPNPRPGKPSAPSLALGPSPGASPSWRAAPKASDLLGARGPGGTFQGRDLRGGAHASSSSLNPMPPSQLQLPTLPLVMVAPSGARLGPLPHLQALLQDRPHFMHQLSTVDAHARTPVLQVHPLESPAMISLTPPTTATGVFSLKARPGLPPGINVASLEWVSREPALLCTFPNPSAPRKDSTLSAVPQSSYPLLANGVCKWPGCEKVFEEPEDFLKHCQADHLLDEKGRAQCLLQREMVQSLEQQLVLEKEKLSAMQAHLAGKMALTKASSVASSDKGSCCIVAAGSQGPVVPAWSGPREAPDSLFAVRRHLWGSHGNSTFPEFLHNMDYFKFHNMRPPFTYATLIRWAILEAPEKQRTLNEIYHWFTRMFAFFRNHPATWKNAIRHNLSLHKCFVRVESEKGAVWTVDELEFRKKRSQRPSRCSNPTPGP
Method: Into HEK293/NF-κB-RE cells, pcDNA3.1-FOXP3 (Department of Cancer vaccine therapy/Immuno-gene therapy, Mie University Graduate School of Medicine), which is a FOXP3 gene expression vector, was introduced, and the cells were subjected to a selection through culture in a medium containing 0.5 mg/mL G418 for 3 weeks. The obtained single clone was isolated and established as a stable line. For culture, DMEM containing 10% heat inactivated […], 0.2 mg/mL Hygromycin B, and 0.5 mg/mL G418 was used.
A cell suspension of 1.875×10^5 cells/mL was prepared for HEK293/NF-κB-RE/FOXP3 cells and HEK293/NF-κB-RE cells, respectively, using DMEM with 10% heat inactivated FBS and without phenol red (medium for assay). The cell suspension was seeded into a 96 well white microplate (nunc) at 80 μL/well (1.5×10^4 cells/well) and the cells were cultured overnight under the conditions of 37° C. and 5% CO2.
A DMSO solution of a test drug with a concentration of 1000 times the final concentration was diluted 100 times with the medium for assay to prepare a test drug solution with a concentration of 10 times the final concentration (a 10 times concentration test drug solution). To each well into which the cell suspension was seeded, 10 μL of the 10 times concentration test drug solution was added and treatment was carried out under the conditions of 37° C. and 5% CO2 for an hour (10 μL of a 1% DMSO solution was added to the control at this time).
Recombinant Human TNF-alpha (R&D Systems) was made to 100 μg/mL with 0.1% BSA-containing PBS, and was further diluted with the medium for assay to prepare a 3 ng/mL TNF-alpha solution. To each well described above, 10 μL of the 3 ng/mL TNF-alpha solution was added, and stimulation was performed under the conditions of 37° C. and 5% CO2 for 2.5 hours (the final concentration of TNF-alpha: 0.3 ng/mL).
The culture supernatant was removed, and the cells were washed once with 100 μL of the medium for assay. After adding 100 μL of the medium for assay, 50 μL of Steady-Glo (Promega Corporation) was added. The microplate was shaken for 10 minutes on a plate shaker with the light blocked. After shaking, the chemiluminescence intensity was measured by ARVO Light plate reader (Perkin Elmer). It should be noted that each test was carried out three times. The results obtained by using HEK293/NF-κB-RE/FOXP3 cells are shown in FIG. 1(A) and the results obtained by using HEK293/NF-κB-RE cells are shown in FIG. 1(B).
The FOXP3 inhibitory activity was evaluated in the same method as that in Example 1 except that the test drug was changed to epirubicin, pirarubicin, daunorubicin, doxorubicin, or idarubicin. The final concentration of each test drug was 0.01, 0.03, 0.1, 0.3 or 1 μM (only epirubicin and doxorubicin were tested also at 1 μM, and idarubicin was tested only at 0.01 and 0.03 μM).
Furthermore, the chemiluminescence intensity ratio was calculated by the Formula 1 below. The test was carried out three times. Chemiluminescence intensity ratio=(chemiluminescence intensity measured when HEK293/NF-κB-RE/FOXP3 cells were used)/(chemiluminescence intensity measured when HEK293/NF-κB-RE cells were used) [Formula 1] 3. Results

mouse regulatory T cells = test: Overcoming immunosuppressive action of mouse regulatory T cells: growth of CFSE-stained CD8+ T cells co-cultured with epirubicin-treated CD4+CD25+ T lymphocytes; format: cell-based, BALB/c mice; conditions: in the presence of regulatory T cells treated with epirubicin at a low dose not showing cytotoxicity, FIG. 2
Method: Anti-CD3 antibody (1 μg/mL, manufactured by eBioscience) was added to a 12 well flat-bottom plate and the plate was left to stand at 4° C. overnight, and then washed with RPMI 1640 medium. Spleen was isolated from BALB/c mice, and CD4^+CD25^+ T lymphocytes were isolated using a mouse regulatory T cell isolation kit (manufactured by Miltenyi Biotec) and autoMACS separator (manufactured by Miltenyi Biotec). To the 12 well flat-bottom plate coated with anti-CD3 antibody, seven hundred thousand CD4^+CD25^+ T lymphocytes per well were added, and anti-CD28 antibody (manufactured by eBioscience) and IL-2 (NOVARTIS) were added so that the concentrations were 1 μg/mL and 60 IU/mL, respectively. Next, epirubicin was added at various concentrations and the lymphocytes were cultured in an incubator at 37° C. for 48 hours and then washed with a 10% FBS supplemented RPMI 1640 medium.
Anti-CD3 antibody (1 μg/mL, manufactured by eBioscience) was added to a 96 well flat-bottom plate and the plate was left to stand at 4° C. overnight, and then washed with RPMI 1640 medium. […] The lymphocytes were collected and washed with PBS containing 0.5% BSA, and then stained with anti-CD8-APC antibody (manufactured by eBioscience) and analyzed using FACS Canto II flow cytometer (manufactured by Becton Dickinson).

HEK293/NF-κB-RE cells = test: NF-κB luciferase reporter in HEK293/NF-κB-RE cells without FOXP3, with TNF-alpha; format: cell-based, human; conditions: epirubicin 0.003-1 μM, TNF-alpha 0.3 ng/mL, FIG. 1(B)
Excerpt: Herein, the activity of inhibiting FOXP3 function can be evaluated by preparing HEK293 cells (HEK293/NF-κB-RE cells) into which a luciferase reporter vector has been stably introduced and cells (HEK293/NF-κB-RE/FOXP3 cells) obtained by stably introducing the FOXP3 gene into the HEK293/NF-κB-RE cells, adding a test drug and TNF-alpha (TNF-α) thereto, followed by culture, and measuring a difference in chemiluminescence intensity in each cell group.
Into a human embryonic kidney-derived cell line HEK293 (RIKEN CELL BANK), pGL4.32 [luc2P/NF-κB-RE/Hygro] (Promega Corporation), which is a luciferase reporter vector, was introduced, and the cells were subjected to a selection through culture in a medium containing 0.2 mg/mL Hygromycin B for 3 weeks. The obtained single clone was isolated and established as a stable line. For culture, DMEM (Dulbecco's Modified Eagle's Medium) containing 10% heat inactivated FBS and 0.2 mg/mL Hygromycin B was used.
A cell suspension of 1.875×10^5 cells/mL was prepared for HEK293/NF-κB-RE/FOXP3 cells and HEK293/NF-κB-RE cells, respectively, using DMEM with 10% heat inactivated FBS and without phenol red (medium for assay). […]
The culture supernatant was removed, and the cells were washed once with 100 μL of the medium for assay. […] After shaking, the chemiluminescence intensity was measured by ARVO Light plate reader (Perkin Elmer). […]

[1] = system: CD4+FOXP3+ and CD4+FOXP3− tumor-infiltrating lymphocytes; test: IFN-γ positive cells among tumor-infiltrating lymphocytes of CMS5a tumor-bearing mice; format: in vivo, BALB/c mice; conditions: epirubicin 0.1, 0.3, 1 mg/kg intravenously on days 3, 5, 7, TIL collected day 8
Method: CMS5a cells were transplanted under the skin in the posterodorsal region of female BALB/c mice (8 mice per group) on day 0. […] On day 8, the mice were euthanized and tumors were collected. Using gentle MACS dissociator (manufactured by Miltenyi Biotec) in accordance with the instruction manual, tumor-infiltrating lymphocytes (TIL) were separated from the tumors. The collected cells were seeded into a 24 well plate and stimulated with phorbol 12-myristate 13-acetate (PMA) and ionomycin under the condition of 37° C. for an hour, and then cultured with GolgiPlug (BD Biosciences) for 6 hours. After collecting the cells, the cells were stained with PreCP-CyTM5.5 rat anti-mouse CD4 antibody (manufactured by BD Pharmingen) and V500 rat anti-mouse CD8a antibody (manufactured by BD Horizon) under the condition of 4° C. for 15 minutes. The stained cells were fixed with Fixation/Permeabilization Concentrate and Diluent (1:3, manufactured by eBioscience) under the condition of 4° C. overnight. […] The stained cells were analyzed using FACS Canto II flow cytometer (manufactured by Becton Dickinson).

[2] = test drug concentration 0.01 (μM)
[3] = test drug concentration 0.03 (μM)
[4] = test drug concentration 0.1 (μM)
[5] = test drug concentration 0.3 (μM)

SMILES	Chemiluminescence intensity ratio (HEK293/NF-κB-RE/FOXP3 cells / HEK293/NF-κB-RE cells) (FOXP3; [2])	Chemiluminescence intensity ratio (HEK293/NF-κB-RE/FOXP3 cells / HEK293/NF-κB-RE cells) (FOXP3; [3])	Chemiluminescence intensity ratio (HEK293/NF-κB-RE/FOXP3 cells / HEK293/NF-κB-RE cells) (FOXP3; [4])	Chemiluminescence intensity ratio (HEK293/NF-κB-RE/FOXP3 cells / HEK293/NF-κB-RE cells) (FOXP3; [5])	FOXP3 inhibitory activity (Example 2, in words) (FOXP3; 0.01-1 μM, Table 2)	inhibition of FOXP3 function (conclusion of Example 1) (FOXP3; FOXP3 cells compared with cells without FOXP3)	chemiluminescence intensity compared to control (FOXP3; HEK293/NF-κB-RE/FOXP3 cells, 0.1 μM)	chemiluminescence intensity compared to control (FOXP3; HEK293/NF-κB-RE/FOXP3 cells, 0.3 or 1 μM)	chemiluminescence intensity (FOXP3; HEK293/NF-κB-RE/FOXP3 cells, epirubicin 0.003-1 μM, TNF-alpha 0.3 ng/mL, FIG. 1(A))	Chemiluminescence intensity ratio (HEK293/NF-κB-RE/FOXP3 cells / HEK293/NF-κB-RE cells) (FOXP3; test drug concentration 1 (μM))	growth rate of CD8+ T cells (mouse regulatory T cells)	chemiluminescence intensity (HEK293/NF-κB-RE cells)	proportion of IFN-γ positive cells to CD4+FOXP3+ cells ([1]; FIG. 3(A))	proportion of IFN-γ positive cells to CD4+FOXP3− cells ([1]; FIG. 3(B))
COc1cccc2c1C(=O)c1c(O)c3c(c(O)c1C2=O)C[C@@](O)(C(=O)CO)C[C@@H]3O[C@H]1C[C@H](N)[C@H](O[C@@H]2CCCCO2)[C@H](C)O1 [Pirarubicin, pirarubicin]	1.03	1.08	1.53	1.50										
CC(=O)[C@]1(O)Cc2c(O)c3c(c(O)c2[C@@H](O[C@H]2C[C@H](N)[C@H](O)[C@H](C)O2)C1)C(=O)c1ccccc1C3=O [Idarubicin, idarubicin]	1.02	1.21												
COc1cccc2c1C(=O)c1c(O)c3c(c(O)c1C2=O)C[C@@](O)(C(=O)CO)C[C@@H]3O[C@H]1C[C@H](N)[C@@H](O)[C@H](C)O1 [Epirubicin, epirubicin]	1.29	1.39	1.42	1.62	increased in a concentration-dependent manner	selectively inhibited FOXP3 function	significantly high as compared to that in the control at P<0.05	significantly high as compared to that in the control at P<0.01	increased in an epirubicin concentration-dependent manner	2.37	increased in a concentration-dependent manner	concentration-dependent changes were not observed	increased in a concentration-dependent manner	did not vary
COc1cccc2c1C(=O)c1c(O)c3c(c(O)c1C2=O)C[C@@](O)(C(C)=O)C[C@@H]3O[C@H]1C[C@H](N)[C@H](O)[C@H](C)O1 [Daunorubicin, daunorubicin]	1.09	1.12	1.82	2.07										
COc1cccc2c1C(=O)c1c(O)c3c(c(O)c1C2=O)C[C@@](O)(C(=O)CO)C[C@@H]3O[C@H]1C[C@H](N)[C@H](O)[C@H](C)O1 [Doxorubicin, doxorubicin]	0.97	1.08	1.14	1.29						1.38				
